Data set [1] deals with T1, 5-HT2B receptor (Homo sapiens, UniProt P41595).
T1 construct: expressed in transfected cells; host or cells: HEK293, stably transfected
Kind of data set: cell-based. The settings on record: for Emax: HEK293, agonist, read-out: 5-HT2B % Act @ Max Dose. Type of data set: cell-based. A digest of the protocol: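 FLIPR Tetra fluorescence read-out of calcium flux after compound addition. Receptor-expressing stable lines were used (HEK293 for 2A/2B; CHO with Gα15 for 1A), dye-loaded with Fluo-4 Direct and 2.5 mM final probenecid, 50 min at 37 °C.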

Data set [2] addresses T2, 5-HT1A receptor (Homo sapiens, UniProt P08908).
T2 construct: expressed in transfected cells; host or cells: CHO cells, stably transfected
T2 sequence (P08908 1-422): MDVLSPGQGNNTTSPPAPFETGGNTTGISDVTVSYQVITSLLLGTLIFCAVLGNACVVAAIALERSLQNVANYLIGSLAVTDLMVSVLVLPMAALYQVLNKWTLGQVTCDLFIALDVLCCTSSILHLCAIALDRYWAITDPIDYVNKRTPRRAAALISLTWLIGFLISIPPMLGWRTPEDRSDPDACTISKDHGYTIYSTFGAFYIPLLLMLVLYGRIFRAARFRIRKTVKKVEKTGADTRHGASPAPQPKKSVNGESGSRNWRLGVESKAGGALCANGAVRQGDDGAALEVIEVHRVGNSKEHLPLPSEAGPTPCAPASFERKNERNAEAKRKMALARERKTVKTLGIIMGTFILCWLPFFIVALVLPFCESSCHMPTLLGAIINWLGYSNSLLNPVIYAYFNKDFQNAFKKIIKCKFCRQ
Kind of data set: cell-based. Particulars: agonist, Ca2+ flux; for Emax: CHO, CHO cells with Gα15, max dose, read-out: 5-HT1A % Act @ Max Dose. A digest of the protocol:
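Using HEK293 lines for the 5-HT2 subtypes and Gα15-coupled CHO cells for 5-HT1A, compounds were tested as agonists. Fluorescent Ca2+ signal followed dye loading (Fluo-4 Direct, 2.5 mM final probenecid, 50 min, 37 °C).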
(A change in cytosolic calcium serves as a functional read-out for many receptors and channels.)

Data set [3] concerns the target T3, 5-HT1B receptor (Homo sapiens, UniProt P28222).
T3 construct: expressed in transfected cells
Kind of data set: cAMP accumulation functional assay at 5-HT1B. The format is cell-based. Particulars: for Emax: agonist, cAMP accumulation, max dose, read-out: 5-HT1B % Act @ Max Dose; for selectivity for 5-HT2A over 5-HT1B: functional, compared to the N-methyl prototype LSD. The method, boiled down: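 Stably transfected human 5-HT1B cells were incubated 60 min at room temperature, after which detection reagent was applied for another 60 min at RT. The read-out was cAMP accumulation, used as a measure of agonist activity.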
For orientation: Cyclic AMP is a second messenger, typically raised through Gs and lowered through Gi signalling.

For data set [4], the target named is T4, 5-HT2A receptor (Homo sapiens, UniProt P28223). Description: cell-based. The format is cell-based. Also noted: expressed in transfected cells; host or cells: HEK293, stably transfected. Particulars: for Emax: HEK293, agonist, HEK293, max dose, read-out: 5-HT2A % Act @ Max Dose. A digest of the protocol: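 Stable HEK293 (5-HT2A, 5-HT2B) or CHO/Gα15 (5-HT1A) cells; Fluo-4 Direct, probenecid 2.5 mM final; 50 min dye load, 37 °C, 5% CO2; agonist-mode Ca2+ flux, FLIPR Tetra.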

In data set [5] the target is T4, 5-HT2A receptor. Description: cell-based. Type of data set: cell-based. Particulars: beta-arrestin recruitment; for Emax: read-out: 5-HT2A Arrestin % Act @ Max Dose. The method, boiled down: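 Agonist activity expressed as percent of maximal control ligand signal after vehicle subtraction, from chemiluminescence (RLU). Cells carry ProLink-tagged 5-HT2A plus β-arrestin fused to β-gal deletion mutant; ligand-driven arrestin binding restores β-galactosidase activity (PathHunter). Cells pre-incubated at 37° C.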

Data set [6] in a line: in vitro. The format is in vitro ADME, rat. An excerpt:
RLM Stability Pooled RLM from male Sprague-Dawley rats (Xenotech R1000) were used.

Data set [7] is described as follows: in vitro. Type of data set: in vitro ADME, mouse. An excerpt: MLM Stability Pooled MLM from male CD-1 mice (BIOIVT M00501) were used.
The nature of data set [8]: in vitro. Type of data set: in vitro ADME, human.
The target of data set [9] is T4, 5-HT2A receptor. Kind of data set: biochemical. Type of data set: binding. Further details: expressed in transfected cells; host or cells: HEK293, stably transfected. The settings on record: [3H]ketanserin 1 nM; HEK293 stable cell line; 1 h, 25 °C. The method, boiled down:
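Test compounds competed with [^3H]ketanserin for receptor binding, and affinity was derived from the radioligand displacement.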

The mark [10] stands for this setting: RLM (male Sprague-Dawley) 0.50 mg/mL, NADPH 1 mM, 1 μM compound, pH 7.4, 37° C., 60 min.
Setting [11] is: MLM (male CD-1) 0.50 mg/mL, NADPH 1 mM, 1 μM compound, pH 7.4, 37° C., 60 min.
The mark [12] stands for this setting: HLM 0.50 mg/mL, NADPH 1 mM, 1 μM compound, pH 7.4, 37° C., 60 min.

Read-outs that look alike come from different tables or passages of the source.

T1 sequence (P41595 whole entry): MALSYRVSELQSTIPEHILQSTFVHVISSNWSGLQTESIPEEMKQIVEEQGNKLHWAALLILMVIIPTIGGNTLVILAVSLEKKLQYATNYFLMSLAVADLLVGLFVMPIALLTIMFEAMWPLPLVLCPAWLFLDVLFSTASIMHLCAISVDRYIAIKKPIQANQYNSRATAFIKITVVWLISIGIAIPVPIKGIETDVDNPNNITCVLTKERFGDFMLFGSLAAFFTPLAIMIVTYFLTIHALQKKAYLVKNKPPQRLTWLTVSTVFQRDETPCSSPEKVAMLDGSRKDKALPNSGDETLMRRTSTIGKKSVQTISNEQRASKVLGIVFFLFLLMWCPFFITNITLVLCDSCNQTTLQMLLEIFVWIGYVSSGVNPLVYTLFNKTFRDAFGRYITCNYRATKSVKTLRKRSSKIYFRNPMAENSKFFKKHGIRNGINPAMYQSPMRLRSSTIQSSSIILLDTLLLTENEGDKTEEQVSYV
T4 sequence (P28223 whole entry): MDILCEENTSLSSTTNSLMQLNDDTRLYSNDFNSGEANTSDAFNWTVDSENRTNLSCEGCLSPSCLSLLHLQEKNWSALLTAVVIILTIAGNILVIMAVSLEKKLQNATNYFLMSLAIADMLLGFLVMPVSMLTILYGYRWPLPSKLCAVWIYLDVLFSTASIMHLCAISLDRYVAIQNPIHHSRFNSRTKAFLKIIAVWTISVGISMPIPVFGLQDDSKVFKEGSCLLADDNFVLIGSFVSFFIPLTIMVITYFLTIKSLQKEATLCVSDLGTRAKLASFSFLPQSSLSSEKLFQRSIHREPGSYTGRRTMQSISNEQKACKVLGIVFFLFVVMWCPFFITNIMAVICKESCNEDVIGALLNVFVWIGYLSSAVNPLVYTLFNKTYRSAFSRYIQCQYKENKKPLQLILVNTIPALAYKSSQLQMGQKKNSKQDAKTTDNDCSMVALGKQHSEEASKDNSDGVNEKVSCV
T3 sequence (P28222 whole entry): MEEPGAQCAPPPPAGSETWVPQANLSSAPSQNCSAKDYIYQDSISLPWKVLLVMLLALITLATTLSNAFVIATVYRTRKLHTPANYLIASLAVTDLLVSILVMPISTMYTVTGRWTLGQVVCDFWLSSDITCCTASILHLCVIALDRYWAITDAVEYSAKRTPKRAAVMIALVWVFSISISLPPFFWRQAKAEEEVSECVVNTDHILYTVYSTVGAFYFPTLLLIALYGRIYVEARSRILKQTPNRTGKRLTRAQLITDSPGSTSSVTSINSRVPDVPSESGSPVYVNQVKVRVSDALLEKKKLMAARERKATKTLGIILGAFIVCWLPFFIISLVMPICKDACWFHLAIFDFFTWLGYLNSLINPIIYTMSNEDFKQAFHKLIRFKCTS

For `CCCN1C[C@H](C(=O)N(CC)CC)C=C2c3cccc4[nH]cc(c34)C[C@H]21` [Compound 1, (6aR,9R)—N,N-diethyl-7-propyl-4,6,6a,7,8,9-hexahydroindolo[4,3-fg]quinoline-9-carboxamide], the Emax in [1] (Ca2+ flux, HEK293, max dose) was found to be 104%; in data set [2] it was 95.6%; in data set [3] it was 96.6%; in data set [4] (Ca2+ flux), 97%; in data set [5] (agonist, max dose), 129%. For the same compound, in data set [5], the “5-HT2A arrestin agonist class” value is “full agonists”. In [6], the “stability in RLM” value was “much lower stability (higher clearance)”. Besides, the “half-life (t1/2)” value worked out at 16.2 min in data set [6] (setting [10]), 2.3 min in data set [7] (setting [11]) and 15.1 min in data set [8] (setting [12]). For the same compound, the “stability in MLM” value in data set [7] is recorded as “much lower stability (higher clearance)”. Moreover, in [8], the “stability in HLM” value is on record as “much lower stability (higher clearance)”.

For `CCN(CC)C(=O)[C@@H]1C=C2c3cccc4[nH]cc(c34)C[C@H]2N(CCCF)C1` [Compound 2, (6aR,9R)—N,N-diethyl-7-(3-fluoropropyl)-4,6,6a,7,8,9-hexahydroindolo[4,3-fg]quinoline-9-carboxamide], the Emax worked out at 101% in data set [1] (Ca2+ flux, HEK293, max dose); 92.4% in [2]; 90% in data set [3]; 97.8% in data set [4] (Ca2+ flux); 115% in data set [5] (agonist, max dose). In [3], the “selectivity for 5-HT2A over 5-HT1B” value is given as “greater selectivity for 5-HT2A over 5-HT1B”. Besides, the “5-HT2A arrestin agonist class” value in data set [5] is on record as “full agonists”. The “stability in RLM” value in data set [6] is “much lower stability (higher clearance)”. The entries for the “half-life (t1/2)” value in [6] (setting [10]), in data set [7] (setting [11]) and in data set [8] (setting [12]) were 11.972 min, 2.666 min and 19.061 min, respectively. In [7], the “stability in MLM” value is recorded as “much lower stability (higher clearance)”. For the same compound, the “stability in HLM” value in [8] is listed as “much lower stability (higher clearance)”.

With `CCCN1C[C@H](C(=O)N[C@H](C)CC)C=C2c3cccc4[nH]cc(c34)C[C@H]21` [Compound 3, (6aR,9R)—N—((R)-sec-butyl)-7-propyl-4,6,6a,7,8,9-hexahydroindolo[4,3-fg]quinoline-9-carboxamide], the Emax in data set [1] (Ca2+ flux, HEK293, max dose) turned out to be 94.1%; in [2], 108%; in [3], 98.7%; in data set [4] (Ca2+ flux), 103%; in [5] (agonist, max dose), 110%. The “selectivity for 5-HT2A over 5-HT2B” value in data set [1] (functional, compared to closest N-methyl counterparts Int8, Int11, Int17) is listed as “more selective for 5-HT2A over 5-HT2B”. The “selectivity for 5-HT2A over 5-HT1B” value in data set [3] is “greater selectivity for 5-HT2A over 5-HT1B”. For the same compound, in [4] (versus Alpha1A, Alpha2A, D1, D2), the “selectivity for 5-HT2A over adrenergic and dopamine receptors” value is “exceptional selectivity”. Also, in data set [5], the “5-HT2A arrestin agonist class” value is on record as “full agonists”. Further, the “stability in RLM” value in data set [6] is listed as “much lower stability (higher clearance)”. Further, the “half-life (t1/2)” value in data set [6] (setting [10]) is 4.4 min; in data set [7] (setting [11]), 1.6 min; in data set [8] (setting [12]), 4.2 min. Besides, the “stability in MLM” value in data set [7] was “much lower stability (higher clearance)”. Also, the “stability in HLM” value in [8] is listed as “much lower stability (higher clearance)”.

In the case of `C=CCN1C[C@H](C(=O)N[C@H](C)CC)C=C2c3cccc4[nH]cc(c34)C[C@H]21` [Compound 8, (6aR,9R)-7-allyl-N—((R)-sec-butyl)-4,6,6a,7,8,9-hexahydroindolo[4,3-fg]quinoline-9-carboxamide], the Emax in [1] (Ca2+ flux, HEK293, max dose) turned out to be 91.6%; in data set [2], 116%; in data set [4] (Ca2+ flux) it was 99.2%; in data set [5] (agonist, max dose), 112%. The “5-HT2A arrestin agonist class” value in [5] is recorded as “full agonists”. Moreover, the “stability in RLM” value in data set [6] is reported as “much lower stability (higher clearance)”. Moreover, the “half-life (t1/2)” value in data set [6] (setting [10]) came to 7.7 min; in data set [7] (setting [11]), 3.7 min; in [8] (setting [12]), 7.9 min. The “stability in MLM” value in [7] is “much lower stability (higher clearance)”. Moreover, in [8], the “stability in HLM” value is given as “much lower stability (higher clearance)”.

`CCN(CC)C(=O)[C@@H]1C=C2c3cccc4[nH]cc(c34)C[C@H]2N(CCc2ccccc2OC)C1` [Compound 11, (6aR,9R)—N,N-diethyl-7-(2-methoxyphenethyl)-4,6,6,7,8,9-hexahydroindolo[4,3-fg]quinoline-9-carboxamide]: the “5-HT2B % Act @ Max Dose” value in data set [1] (agonist, Ca2+ flux, HEK293, max dose) was 2.5%. In addition, in data set [5] (agonist, max dose), the “5-HT2A Arrestin % Act @ Max Dose” value stood at 54.26%. Besides, the “stability in RLM” value in data set [6] was “much lower stability (higher clearance)”. Besides, the “Intrinsic clearance (Clint)” value amounted to 1195.423 µL/min/mg in data set [6] (setting [10]), 1512.047 µL/min/mg in data set [7] (setting [11]) and 584.336 µL/min/mg in [8] (setting [12]). Besides, the “half-life (t1/2)” value in [6] (setting [10]) turned out to be 1.159 min; in data set [7] (setting [11]), 0.917 min; in data set [8] (setting [12]) it was 2.372 min. The “stability in MLM” value in data set [7] was “much lower stability (higher clearance)”. In data set [8], the “stability in HLM” value was “much lower stability (higher clearance)”.

As usually defined, the EC50 is the concentration giving half of the maximal effect. A lower EC50 goes with higher potency in that assay. As usually defined, the Ki is a dissociation constant, usually derived from enzyme kinetics or from competition with a known ligand. As for `CCN(C)C(=O)[C@@H]1C=C2c3cccc4[nH]cc(c34)C[C@H]2N(Cc2ccccc2)C1` [Compound 85, (6aR,9R)-7-benzyl-N-ethyl-N-methyl-4,6,6a,7,8,9-hexahydroindolo[4,3-fg]quinoline-9-carboxamide], the Emax in data set [1] (Ca2+ flux, HEK293, max dose) worked out at 3.73%; in data set [2], 36.8%; in data set [4] (Ca2+ flux), 60.6%. Besides, the EC50 in [1] (agonist, Ca2+ flux, HEK293) was over 10 µM; in data set [2] (CHO cells with Gα15) it was over 10 µM; in data set [4] (agonist, Ca2+ flux, HEK293) it was 0.5 µM. The inhibition constant (Ki) in data set [9] is 0.00127 µM. For the same compound, the microsomal CLint in data set [6] (rat, microsomes, RLM (male Sprague-Dawley) 0.50 mg/mL, NADPH 1 mM, 1 μM compound, pH 7.4, 37° C., 60 min, read-out: Intrinsic clearance (Clint)) was determined as 131 µL/min/mg; in [7] (mouse, microsomes, MLM (male CD-1) 0.50 mg/mL, NADPH 1 mM, 1 μM compound, pH 7.4, 37° C., 60 min, read-out: Intrinsic clearance (Clint)) it was 184 µL/min/mg; in data set [8] (human, microsomes, HLM 0.50 mg/mL, NADPH 1 mM, 1 μM compound, pH 7.4, 37° C., 60 min, read-out: Intrinsic clearance (Clint)) it was 95 µL/min/mg. For the same compound, the half-life stood at 10.5 min in data set [6] (rat, microsomes, RLM (male Sprague-Dawley) 0.50 mg/mL, NADPH 1 mM, 1 μM compound, pH 7.4, 37° C., 60 min, read-out: half-life (t1/2)); 7.5 min in data set [7] (mouse, microsomes, MLM (male CD-1) 0.50 mg/mL, NADPH 1 mM, 1 μM compound, pH 7.4, 37° C., 60 min, read-out: half-life (t1/2)); 14.6 min in data set [8] (human, microsomes, HLM 0.50 mg/mL, NADPH 1 mM, 1 μM compound, pH 7.4, 37° C., 60 min, read-out: half-life (t1/2)).

`CC[C@@H](C)NC(=O)[C@@H]1C=C2c3cccc4[nH]cc(c34)C[C@H]2N(C)C1` [Int8]: the Emax in data set [1] (Ca2+ flux, HEK293, max dose) came to 17.7%; in data set [2] it was 90.2%; in [4] (Ca2+ flux) it was 96.2%; in [5] (agonist, max dose), 46.1%. Further, the “5-HT2A arrestin agonist class” value in [5] is “partial agonists”. Moreover, the “half-life (t1/2)” value stood at 99.5 min in [6] (rat, microsomes, pH 7.4); 39.9 min in data set [7] (mouse, microsomes, pH 7.4); 64.9 min in data set [8] (human, microsomes, pH 7.4).

The values above are taken from patent publication US20260317319A1, “NOVEL ERGOLINES AND METHODS OF TREATING MOOD DISORDERS” (Gilgamesh Pharma Inc., priority 2023, published 2026).
